Patent publication US20210292710A1, “METHOD FOR ENHANCING IMMUNE FUNCTION OF IMMUNE CELL AND IMMUNE CELL LINE PRODUCED USING THE SAME” (INDUSTRY-ACADEMIC COOPERATION FOUNDATION, YONSEI UNIVERSITY, priority 2020, published 2021)

Assays:
[1] = system: lung-cancer cell line KLN205; experiment: Percentage of immune cells relative to lung-cancer cell line KLN205; assay type: in vivo
Description: Referring to FIG. 10B, the percentage of immune cells relative to the lung-cancer cell line KLN205 due to PI3K inhibitor treatment is shown. Referring first to FIG. 10B (a), the percentage of CD3+ CD8+ T cells relative to the lung-cancer cell line KLN205 due to PI3K inhibitor treatment is shown. Next, referring to (b) of FIG. 10B, the percentage of CD3+ CD4+ CD25+ Foxp3 T cells relative to lung-cancer cell line KLN205 due to PI3K inhibitor treatment is shown. Next, referring to (c) of FIG. 10B, the percentage of CD3+ TIL cells relative to the lung-cancer cell line KLN205 due to PI3K inhibitor treatment is shown. Next, referring to (d) of FIG. 10B, the percentage of MDSC cells relative to lung-cancer cell line KLN205 due to PI3K inhibitor treatment is shown.

T cells = experiment: Extracellular acidification rate (ECAR) of T cells; assay type: cell-based, mouse
Protocol: Further, referring to FIG. 5B, the extracellular acidification rate (ECAR) of T cells due to PI3K inhibitor treatment is shown. In this connection, to measure the extracellular acidification rate, the T cell used in FIG. 5A is used, and 1×10^5 T cells are used. Furthermore, the extracellular acidification rate refers to a measurement of glucose degradation via a change in pH resulting from lactate secretion in the medium. In this connection, as the oligomycin is injected to inhibit mitochondrial metabolism, T cells must produce ATP using only glycolysis. Thus, the extracellular acidification rate in phase 3 may mean pure glycolysis capacity. In this connection, 2DG is a molecule in which the 2-hydroxyl group of glucose is replaced with hydrogen and thus glucose may not be degraded. Furthermore, when the T cell is treated with 2DG, the extracellular acdification rate may be controlled in an upstream phase of glucose metabolism. Thus, the extracellular acidification rate in phase 4 may refer to the glucose reserve in the cell.

AKT = AKT expression in T cells due to PI3K inhibitor and mTORC1 inhibitor treatment; assay type: cell-based; conditions: RAD001 as mTORC1 inhibitor, p<0.05
Description: Furthermore, referring to FIG. 8, AKT and GLUT1 expression levels in T cells due to PI3K inhibitor and mTORC1 inhibitor treatment are shown. In this connection, RAD001 is used as a mTORC1 inhibitor. First, referring to (a) of FIG. 8, AKT expression levels in T cells due to PI3K inhibitor and mTORC1 inhibitor treatment are shown. […] This may mean that when mTORC1 is inhibited, AKT expression is reduced, and thus mTORC1 is an important signal capable of rebounding AKT expression.

GLUT1 = GLUT1 expression in T cell based on type of PI3K inhibitor
Description: More specifically, referring to (a) of FIG. 12, the results of GLUT1 expression according to the type of PI3K inhibitor in the helper T cell are shown. In this connection, the PI3K inhibitor may include BKM 120 that may inhibit all subtypes, CAL-101 that may inhibit only p110δ, IPI-145 capable of inhibiting p110γ and P110δ, BYLT719 capable of inhibiting only p110α, and TGX-211 capable of inhibiting only p110β.
Referring to (b) of FIG. 12, the results of GLUT1 expression according to the type of PI3K inhibitor in cytotoxic T cells are shown.

[2] = system: lung-cancer cell line LLC2; experiment: Cancer cell killing ability of CD3+ T cells from PI3K inhibitor-treated mice, co-culture with lung-cancer cell line, annexin V/PI flow cytometry; assay type: cell-based, mouse
Protocol: First, 3 μg of a neoplasm lysate obtained from lung-cancer cell line LLC2 and 1 μg of an adjuvant LPS (lipopolysaccharide) are injected into 6 to 8 weeks old BALBc mice as an allogeneic model once a week in an intramuscular injection manner. At the same time, 50 mpk (mg/kg) of BKM-120 as a PI3K inhibitor (iPI3K) is orally administered to the mice belonging to the PI3K inhibitor-treated experimental group once a day.
Then, lymphocytes are separated from the splenocyte of the mouse subjected to the PI3K inhibitor for a total of 3 weeks. Only CD3+ T cells are obtained using a magnetic-activated cell sorter (MACS).
Then, the obtained CD3+ T cells are co-cultured for 24 hours together with the lung-cancer cell line from which the lysate is obtained. In this connection, a ratio between the numbers of the T cell and the lung-cancer cell line may be defined as 10 T cells: 1 lung-cancer cell line. Furthermore, the T cells and lung-cancer cell line are cultured under a normal condition, a hypoxic condition, and a low glucose condition, respectively, to identify cancer cell killing ability in poor tumor microenvironment.
Then, the co-cultured T cells and lung-cancer cell line are subjected to flow cytometry analysis using an apoptosis kit and CD3+ antibodies.
First, referring to (a) of FIG. 3A, the result of the cancer cell killing ability of the T cell under the normal condition due to the treatment of the PI3K inhibitor is shown. In this connection, the x-axis and y-axis indicate apoptosis using annexin V and PI (propidium iodine) as staining reagent, respectively.

[3] = system: lung-cancer cell line KLN205; experiment: Anti-cancer effect (tumor size) in lung-cancer cell line KLN205; assay type: in vivo
Protocol: Referring to FIG. 10A, the results of the anti-cancer effect against the lung-cancer cell line KLN205 due to the PI3K inhibitor treatment are shown. When the cell is treated with the vehicle as a control, the tumor size rapidly increases as the treatment days increase, and then the tumor size on the 15th day is 400 to 500 mm^3. However, when the cell is treated with the PI3K inhibitor, the tumor size is reduced compared to the control. More specifically, when the cell is treated with the PI3K inhibitor BKM 120 at 35 mpk, the tumor size on the 15th day is 200 to 250 mm^3. When the cell is treated with BKM 120 at 50 mpk, the tumor size on day 15 is found to be 90 to 100 mm^3.

[4] = hypoxic condition, 50 mpk BKM-120, 3 weeks, 24 hours co-culture
[5] = low glucose condition, 50 mpk BKM-120, 3 weeks, 24 hours co-culture
[6] = normal condition, 50 mpk BKM-120, 3 weeks, 24 hours co-culture

## Nc1cc(C(F)(F)F)c(-c2cc(N3CCOCC3)nc(N3CCOCC3)n2)cn1 [BKM 120, buparlisib]
[1]; 35 mpk
  average percentage of CD3+ CD4+ CD25+ Foxp3 T cells: 17%
  average percentage of CD3+ CD8+ T cells: 39%
  average percentage of MDSC cells: 24%
  distribution of the percentage of CD3+ CD4+ CD25+ Foxp3 T cells: 13 to 24%
  distribution of the percentage of CD3+ CD8+ T cells: 35 to 49%
  distribution of the percentage of MDSC cells: 23 to 25%
  percentage of CD3+ TIL cells on average: 5%
[1]; 50 mpk
  average percentage of CD3+ CD4+ CD25+ Foxp3 T cells: 15%
  average percentage of CD3+ CD8+ T cells: 41%
  average percentage of MDSC cells: 18%
  distribution of the percentage of CD3+ CD4+ CD25+ Foxp3 T cells: 12 to 17%
  distribution of the percentage of CD3+ CD8+ T cells: 32 to 50%
  distribution of the percentage of MDSC cells: 17 to 19%
  percentage of CD3+ TIL cells on average: 6%
T cells; phase 1, 1×10^5 T cells
  extracellular acidification rate versus control: higher
T cells; phase 2, glucose injected
  extracellular acidification rate versus control: the difference between the extracellular acidification rates of the T cell group treated with PI3K inhibitor and the control increases
T cells; phase 3, oligomycin injected (glycolysis capacity)
  extracellular acidification rate versus control: higher extracellular acidification rate than that of the control
T cells; phase 4, 2-deoxy-D-glucose (2DG) injected (glucose reserve)
  extracellular acidification rate versus control: higher extracellular acidification rate than that in the control
AKT
  AKT expression in iPI3K+/imTOR− group relative to iPI3K−/imTOR−, iPI3K−/imTOR+ and iPI3K+/imTOR+ groups: 1.5 to 2.3 times
GLUT1; cytotoxic T cells
  GLUT1 expression level versus BYLT719 and TGX-211 inhibitors: higher GLUT1 expression levels
GLUT1; helper T cell
  GLUT1 expression level versus BYLT719 and TGX-211 inhibitors: higher GLUT1 expression levels
[2]; [4]
  first quadrant (stained by both annexin V and PI, complete death of the cancer cell): 47.4%
  fourth quadrant (annexin V / PI): 7.36%
  second quadrant (annexin V / PI): 26.7%
  third quadrant (annexin V / PI): 18.5%
[2]; [5]
  first quadrant (stained by both annexin V and PI, complete death of the cancer cell): 36.1%
  fourth quadrant (annexin V / PI): 3.71%
  second quadrant (annexin V / PI): 47.2%
  third quadrant (annexin V / PI): 13.1%
[2]; [6]
  fourth quadrant (annexin V / PI): 11.5%
  second quadrant (annexin V / PI): 15.5%
  third quadrant (annexin V / PI): 10.2%
[2]; normal condition, T cells from mice given 50 mpk BKM-120 orally once a day for 3 weeks, 10 T cells:1 LLC2, 24 hours
  first quadrant (stained by both annexin V and PI, complete death of the cancer cell): 62.8%
[3]; 35 mpk, 15th day
  tumor size: 200 to 250 mm^3
[3]; 50 mpk, day 15
  tumor size: 90 to 100 mm^3
